This is an account of results in patent US11058705B2, “Drug formulations” (Astex Pharmaceuticals, Inc., priority 2011, dated 2021).

One series has as its system DNA methylation. As to the kind of experiment: Cell-based GFP assay for reactivation of silenced GFP transgene (demethylating activity). The note with it: for GFP Expression Level: three days, decitabine 1 μM or test compound 30-50 μM, fraction of viable cells expressing GFP; for EC50: read-out: GFP50. As to the method: The demethylating activity of compounds of the invention was tested in a cell-based green fluorescent protein (GFP) assay. In the assay, a decrease in methylation resulting from exposure to a methylation inhibitor led to GFP expression, and was readily scored.
The CMV-EE210 cell line containing the epigenetically silenced GFP transgene was used to assay for reactivation of GFP expression by flow cytometry. CMV-EE210 was made by transfecting NIH 3T3 cells with the pTR-UF/UF1/UF2 plasmid, which contained pBS(+) (Stratagene, Inc.) with a cytomegalovirus (CMV) promoter driving a humanized GFP gene adapted for expression in mammalian cells. After transfection, high-level GFP expressing cells were initially selected by FACS analysis and sorting using a MoFlo cytometer (Cytomation, Inc.).
Decitabine, a potent inhibitor of mammalian DNMT 1, was used as a positive control. […] Cells were then seeded to 30% confluence (˜5000 cell/well) in a 96-well plate containing the test compounds, and grown for three days in at 37° C. in 5% CO2.
The plates were examined under a fluorescent microscope using a 450-490 excitation filter (13 filter cube, Leica, Deerfield Ill.). Wells were scored g1 positive, g2 positive, or g3 if GFP was expressed in 10%, 30%, >75% of viable cells, respectively.
Table 1 provides the results of the test for decitabine and the test compounds as DNA methylation inhibitors. GFP50 is the concentration of an inhibitor at which the Green Fluorescent Protein (GFP) expression level is reduced from g3 to g1/2.

The subject of another series is LINE-1 DNA methylation. As to the kind of experiment: LINE-1 DNA methylation in blood samples, repeat dose study. The class given is in vivo, cynomolgus monkeys. As to conditions: until day 22, p<0.05 versus level prior to initial dosing. As to the method:
In a repeat dose study, monkeys were dosed 3× weekly subcutaneously (3 mg/kg). […] (FIGS. 1 and 2.) Pharmacodynamic properties (not shown) were monitored and were acceptable. Blood samples were drawn periodically to assay LINE-1 DNA methylation.

Series [1] is described as follows: Solubility in formulation solvent and in water. The series is classed as physicochemical. The note with it: organic solvent or mixture; substantially anhydrous solvent of the formulations of the invention. An excerpt:
The good chemical stability taken together with the excellent solubility identified the glycol/glycerin/ethanol (65:25:10) system as a formulation for use in animal experiments.

Series [2] in a line: Stability in solvent formulations by HPLC. The series is classed as physicochemical. The note with it: for % decomposition per hour / Percent compound detected: sodium salt. As to the method: The stability of a compound of the invention in various formulations under various storage conditions was investigated. Stability was determined by HPLC at the designated time intervals.

The mark [3] stands for this setting: concentration at which GFP expression level is reduced from g3 to g1/2, CMV-EE210 cells.

Converted amounts (≈) assume the structure as drawn. Like-named read-outs stand apart in the source and are kept apart here.

As for `Nc1ncn([C@H]2C[C@H](O)[C@@H](CO)O2)c(=O)n1` [Decitabine, 5-aza-2′-deoxycytidine, reference compound], the “GFP Expression Level” value in the series on DNA methylation (CMV-EE210 cells) is “g3 (>75% of viable cells)”. Besides, the EC50 with DNA methylation came to 500 nM.
In the case of `Nc1ncn([C@H]2CC(O)[C@@H](COP(=O)(O)OC3C[C@H](n4cnc5c(=O)[nH]c(N)nc54)O[C@@H]3CO)O2)c(=O)n1` (some centres unmarked) [Compound I-2], in the series on DNA methylation (CMV-EE210 cells), the “GFP Expression Level” value is on record as “g3 (>75% of viable cells)”. In addition, the EC50 with DNA methylation (setting [3]) was 700 nM.
Take `Nc1ncn([C@H]2CC(OP(=O)(O)OC[C@H]3O[C@@H](n4cnc5c(=O)[nH]c(N)nc54)CC3O)[C@@H](CO)O2)c(=O)n1` (stereo in doubt) [Compound I-1]: the “Change in LINE-1 DNA methylation” value with LINE-1 DNA methylation is recorded as “Decreases in LINE-1 DNA methylation”. In series [1], the solubility is 130 to 150 mg/mL (≈ 233 to 269 mM). Also, in series [2] (anhydrous DMSO), the “Stability in anhydrous DMSO” value was “stable”. For the same molecule, the Improvement in stability in series [2] (combined effects of cooling plus addition of ethanol to the propylene glycol/glycerin system) amounted to 66 fold; in series [2] (propylene glycol/glycerin/ethanol (65:25:10), changing from warmer to colder storage conditions) it was 40 fold. In addition, the “% decomposition per hour” value is listed as 0.72 in series [2] (DMSO/water (1:1, w/w), 25° C./60% relative humidity); 0.10 in series [2] (DMSO/water (3:1, w/w), 25° C./60% relative humidity); 0.021 in series [2] (propylene glycol/glycerin (70:30, v/v), room temperature); 0.00032 in series [2] (propylene glycol/glycerin/ethanol (65:25:10, w/w/w), 2-8° C.); 0.013 in series [2] (propylene glycol/glycerin/ethanol (65:25:10, w/w/w), 25° C./60% relative humidity); 0.14 in series [2] (water, pH 7.0, 2-8° C.). In addition, the “% decomposition per hour” value in series [2] (water, pH 7.0, room temperature) worked out at 1.1. The Percent compound detected in series [2] (DMSO/water (1:1, w/w), 25° C./60% relative humidity, 5 hours) is on record as 90.1%; in series [2] (DMSO/water (1:1, w/w), 25° C./60% relative humidity, time point 0), 93.7%; in series [2] (DMSO/water (3:1, w/w), 25° C./60% relative humidity, 24 hours), 94.2%; in series [2] (DMSO/water (3:1, w/w), 25° C./60% relative humidity, time point 0), 96.6%; in series [2] (propylene glycol/glycerin (70:30, v/v), room temperature, 24 hours), 96.3%; in series [2] (propylene glycol/glycerin (70:30, v/v), room temperature, time point 0), 96.8%. The Percent compound detected is 95.1% in series [2] (propylene glycol/glycerin/ethanol (65:25:10, w/w/w), 2-8° C., 3 months); 95.8% in series [2] (propylene glycol/glycerin/ethanol (65:25:10, w/w/w), 2-8° C., time point 0); 67.6% in series [2] (propylene glycol/glycerin/ethanol (65:25:10, w/w/w), 25° C./60% relative humidity, 3 months); 95.8% in series [2] (propylene glycol/glycerin/ethanol (65:25:10, w/w/w), 25° C./60% relative humidity, time point 0); 95.1% in series [2] (water, pH 7.0, 2-8° C., 5 hours); 95.8% in series [2] (water, pH 7.0, 2-8° C., time point 0). Also, the Percent compound detected in series [2] (water, pH 7.0, room temperature, 5 hours) is on record as 90.4%; in series [2] (water, pH 7.0, room temperature, time point 0) it was 95.8%. Moreover, the “GFP Expression Level” value with DNA methylation (CMV-EE210 cells) is on record as “g3 (>75% of viable cells)”. In addition, in the series with DNA methylation (setting [3]), the EC50 worked out at 400 nM.

In general, solubility refers to the concentration that dissolves in the medium under given conditions.
